Measured values reported in paper PMC4580987, “Catalytic site inhibition of insulin-degrading enzyme by a small molecule induces glucose intolerance in mice” (Nature Communications, 2015).
In brackets after ≈: the same amount, converted by molar mass.

Assays:
[1] = Stability in human plasma; format: in vitro ADME; details: both sexes, read-out: Plasma stability h (t1/2)
Description: Incubations were performed in duplicate in Eppendorf tubes. The plasma (mouse plasma, rat plasma (mixed gender), human (mixed gender, all lithium heparine, from Sera Laboratories International) or cell culture medium (differenciation medium: DMEM (Life Technologies, Ref 41965), 0.4 % gentamicine, 10 % FCS (Lonza, Ref DE14-801F) or proliferation medium: DMEM (Life Technologies, Ref 41965), 0.4 % gentamicine, 2 % horse serum (Gbco, Ref16050) was pre-incubated 5 min at 37 °C before the addition of test compounds to a final concentration of 10 μM (1% DMSO maximum). At the defined time points, 50 μl from each tube were removed to another tube containing 450 μl of cold CH3CN+ internal standard (1 μM). After centrifugation (10 min at 10,000 r.p.m.), supernatants are analysed. The degradation half-life (t1/2) values were calculated as t1/2=0.693/k where k is the first-order degradation rate constant. The degradation rate constant (k) was estimated by one-phase exponential decay nonlinear regression analysis of the degradation time course data using Xlfit software (version 2.1.2 or higher) from IDBS.Ltd.

human NEP = biological target: T1, human NEP (Homo sapiens, UniProt P08473); assay: Neutral endopeptidase (NEP) selectivity assay; format: biochemical; details: means of two experiments minimum, s.d.±10%; read-out: Selectivity IC50 hNEP
T1 construct: purchased R&D Systems
Description: Briefly, human NEP (R&D Systems; 200 ng ml^−1) was incubated 10 min at room temperature with compound in Hepes 50 mM, NaCl 100 mM, pH 7.4 and the enzymatic reaction started by adding the substrate (final concentration 200 μM). […] Briefly, human ACE (R&D Systems) was incubated 10 min at room temperature with compound in Tris 50 mM 1% NaCl pH 7.4 and the enzymatic reaction is started by adding the substrate (final concentration 300 μM). […] In vitro activity was assayed at CEREP.SA as follows.

Solubility in PBS pH 7.4 = format: physicochemical; details: aqueous buffer, kinetic from dmso stock
Description: Ten microlitre of a 10 mM solution in DMSO of the compound are diluted either in 490 μl of PBS pH 7.4 or in organic solvent MeOH in a 700 μl-microtube (in triplicate). The tubes are gently shaken 24 h at room temperature, then centrifuged for 5 min at 4,000 r.p.m. The mixtures are filtered over 0.45 μm filters (Millex-LH Millipore). Twenty microlitre of sample are diluted in 180 μl of MeOH. The solubility is determined by the ratio of mass signal area PBS/ organic solvent. Forty microlitre of a 10 mM solution in DMSO of the compound were diluted in 1.960 ml of a 1/1 octanol /PBS at pH 7.4 mixture. The mixture was gently shaken 2 h at room temperature. Twenty microlitre of each phase was diluted in 480 μl of MeOH and analysed by LC–MS. Each compound is tested in triplicate. Log D was determined as the logarithm of the ratio of concentration of product in octanol and PBS respectively, determined by mass signals.

NOD mice = assay: Oral glucose tolerance test (OGTT) in NOD mice; format: in vivo, mouse; details: 50 mg kg^−1 ip
Description: OGTT and IPGTT were performed on 11 to 16 week-old male or female mice (n=4–7 per experimental group). C57BL/6J mice were purchased from Charles River Laboratories (France), Stock no. 000664. C57BL/6J Ide−/− mice were obtained from Guenette[20] and bred in the animal facility of INSERM U1151. WT C57BL/6J mice of the same genetic background were bred in the same animal facility in parallel. NOD Ide−/− mice were generated by backcrossing C57BL/6J Ide−/− mice with NOD wt mice bred in the animal facility of INSERM U1151 and maintained in this facility together with WT NOD mice. Normoglycemic WT and Ide−/− female NOD mice aged 14 weeks were used for OGTTs. Following a 6 h fasting period, a small tail cut was made, basal blood glucose was determined. […] Fifteen minutes later, blood glucose concentrations were measured before and after (up to 120 min, as shown) oral (2 g kg^−1 or 3 g kg^−1, as shown) or intraperitoneal (1.5 g kg^−1) glucose administration. […] Blood glucose levels were determined using an Accu-Check glucometer (Roche Diagnostics). Areas under the curves (AUC) for OGTT and IPGTT were calculated to evaluate glucose tolerance. Plasma insulin concentrations were measured by ELISA (cat. no. 10-1247-01,Mercodia) in blood samples collected 15 min before and 15 and 90 min relative to oral glucose injection. […]

T1 sequence (P08473 whole entry): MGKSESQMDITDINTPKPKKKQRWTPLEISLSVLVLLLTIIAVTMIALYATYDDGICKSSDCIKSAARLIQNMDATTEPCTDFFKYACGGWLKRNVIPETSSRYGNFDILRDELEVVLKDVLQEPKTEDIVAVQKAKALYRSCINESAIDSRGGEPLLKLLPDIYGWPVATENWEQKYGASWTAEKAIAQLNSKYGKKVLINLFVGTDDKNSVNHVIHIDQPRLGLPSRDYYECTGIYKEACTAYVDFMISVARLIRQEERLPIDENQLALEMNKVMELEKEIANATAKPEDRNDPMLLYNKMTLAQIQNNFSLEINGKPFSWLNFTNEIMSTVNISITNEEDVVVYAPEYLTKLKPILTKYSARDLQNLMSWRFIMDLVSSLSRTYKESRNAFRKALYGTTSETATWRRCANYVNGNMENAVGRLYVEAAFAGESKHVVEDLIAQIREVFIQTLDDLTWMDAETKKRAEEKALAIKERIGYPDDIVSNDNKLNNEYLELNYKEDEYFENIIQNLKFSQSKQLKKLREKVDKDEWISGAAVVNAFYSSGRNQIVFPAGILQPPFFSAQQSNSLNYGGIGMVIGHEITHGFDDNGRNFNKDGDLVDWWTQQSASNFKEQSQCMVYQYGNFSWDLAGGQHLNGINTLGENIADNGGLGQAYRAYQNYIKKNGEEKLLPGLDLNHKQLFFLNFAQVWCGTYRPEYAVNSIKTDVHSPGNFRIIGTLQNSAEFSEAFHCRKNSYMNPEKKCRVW

Compound O=C(C[C@@H](Cc1ccc2ccccc2c1)n1cc(CNC(=O)c2ccc(F)cc2)nn1)NO [Compound 1] has a half-life at 10 μM [1] greater than 24 h, an IC50 (human NEP) of 2.6 µM and a solubility at 24 h (Solubility in PBS pH 7.4) of 58 µM (≈ 26 µg/mL). The “glucose tolerance in OGTT, WT NOD” value (NOD mice; 14 week-old female WT NOD mice, 3 g kg^−1 glucose) was “strong impairment of glucose tolerance” and the “insulinaemia in OGTT, WT NOD” value (NOD mice; WT NOD mice) was “hyperinsulinemia”.
